The first data set addresses human ENPP2 (Homo sapiens (Human), UniProt Q13822). The data set can be described thus: Measurement of human ENPP2 inhibitory activity. The data set is classed as biochemical. The following applies: human ENPP2, 16:0-LPC substrate, read-out: ENPP2 inhibitory activity rate (%). As to the method:
10 μL of a test compound solution (10% dimethyl sulfoxide) at each concentration and 40 μL of a 5 μg/mL human ENPP2 solution (buffer A: 100 mmol/L Tris-HCl (pH 9.0), 500 mmol/L NaCl, 5 mmol/L MgCl2, 0.05% Triton X-100) were mixed, 50 μL of a 2 mmol/L 16:0-lysophosphatidylcholine (LPC) solution (buffer A) was further added to react at 37° C. for 24 hours. Subsequently, to 10 μL of the reaction solution was added 90 μL of a measurement buffer (0.5 mmol/L aminoantipyrine, 0.3 mmol/L N-ethyl-N-(2-hydroxy-3-sulfopropyl)-3-methylaniline, 1 U/mL peroxidase, 3 U/mL choline oxidase, 100 mmol/L Tris-HCl (pH 8.5), 5 mmol/L CaCl2) to react at 37° C. for 20 minutes, and spectrophotometric determination was performed at 555 nm.
Using a standard curve, a choline production amount (enzyme activity) in each test compound was calculated, and the inhibitory activity rate of each test compound was calculated, wherein the enzyme activity in a positive control to which a test compound is not added, was a 0% inhibition rate, and the enzyme activity in a negative control to which a test compound and human ENPP2 are not added, were 100% inhibition. Further, concerning the present compounds shown in Table 3, an IC50 value was calculated from inhibitory activity rate at each concentration.
For `CCc1cccc(Cn2c3c(c4cccnc42)CCN(C(=O)CC24CCC(C(=O)O)(CC2)C4)C3)c1` [Example 6(72), 4-{2-[9-(3-ethylbenzyl)-5,6,8,9-tetrahydro-7H-pyrido[4′,3′:4,5]pyrrolo[2,3-b]pyridin-7-yl]-2-oxoethyl}bicyclo[2.2.1]heptane-1-carboxylic acid], the inhibition at 1 µM was found to be 99.3%.
Regarding `CC1(C)[C@@H](CC(=O)N2CCc3c(n(Cc4cnc(C(F)(F)F)s4)c4ccccc34)C2)CC[C@@]1(C)C(=O)O` [Example 6(49), (1R,3R)-1,2,2-trimethyl-3-[2-oxo-2-(9-{[2-(trifluoromethyl)-1,3-thiazol-5-yl]methyl}-1,3,4,9-tetrahydro-2H-beta-carbolin-2-yl)ethyl]cyclopentanecarboxylic acid], the inhibition at 1 µM came to 99.1%.
Still for that read-out and setting: the figure for `O=C(C[C@H]1CC[C@H](C(=O)O)CC1)N1CCc2c(n(Cc3csc(C(F)(F)F)c3)c3ncccc23)C1` [Example 6(13), trans-4-[2-oxo-2-(9-{[5-(trifluoromethyl)-3-thienyl]methyl}-5,6,8,9-tetrahydro-7H-pyrido[4′,3′:4,5]pyrrolo[2,3-b]pyridin-7-yl)ethyl]cyclohexanecarboxylic acid] is 99.2%.
Still for that read-out and setting: with `C[C@]1(C(=O)O)CC[C@H](CC(=O)N2CCc3c(n(Cc4cnc(C(F)(F)F)s4)c4ncccc34)C2)CC1` [Example 10(5), trans-1-methyl-4-[2-oxo-2-(9-{[2-(trifluoromethyl)-1,3-thiazol-5-yl]methyl}-5,6,8,9-tetrahydro-7H-pyrido[4′,3′:4,5]pyrrolo[2,3-b]pyridin-7-yl)ethyl]cyclohexanecarboxylic acid] the figure was 97.4%.
In the case of `CC1(C(=O)O)CCN(CC(=O)N2CCc3c(n(Cc4ccc(C(F)(F)F)s4)c4ncccc34)C2)CC1` [Example 7(39), 4-methyl-1-[2-oxo-2-(9-{[5-(trifluoromethyl)-2-thienyl]methyl}-5,6,8,9-tetrahydro-7H-pyrido[4′,3′:4,5]pyrrolo[2,3-b]pyridin-7-yl)ethyl]-4-piperidinecarboxylic acid], the inhibition at 1 µM came to 99.5%.
The same measure, in the same setting: the figure for `O=C(C[C@H]1CC[C@H](C(=O)O)CC1)N1CCc2c(n(Cc3ccc(C(F)(F)F)s3)c3ncccc23)C1` [Example 6(16), trans-4-[2-oxo-2-(9-{[5-(trifluoromethyl)-2-thienyl]methyl}-5,6,8,9-tetrahydro-7H-pyrido[4′,3′:4,5]pyrrolo[2,3-b]pyridin-7-yl)ethyl]cyclohexanecarboxylic acid] is 99%; for `O=C(CC12CCC(C(=O)O)(CC1)C2)N1CCc2c(n(Cc3ccc(C(F)(F)F)cc3)c3ncccc23)C1` [Example 6(68), 4-(2-oxo-2-{9-[4-(trifluoromethyl)benzyl]-5,6,8,9-tetrahydro-7H-pyrido[4′,3′:4,5]pyrrolo[2,3-b]pyridin-7-yl}ethyl)bicyclo[2.2.1]heptane-1-carboxylic acid] it is 99.2%.

A further data set relates to Crl:CD (Sprague-Dawley) male rat. The data set can be described thus: Measurement of blood pressure and heart rate in rat under wakefulness. The data set is classed as in vivo. The note with it: conscious rat, forced oral administration, 100, 300 mg/kg, up to 180 minutes. The method, then: A Cr1:CD (Sparague-Dawley) male rat (Charles River Laboratories Japan, Inc., 8 weeks old) was anesthetized by inhalation of isoflurane. A catheter (INTRAMEDIC POLYETHYLENE Tubing PE50, CLAY ADAMS) was inserted and indwelled in a femoral artery and another end was exposed from dorsal skin. The rat was placed in a rearing cage for blood pressure measurement. After elapse of 2 hours or more from the insertion of the catheter, each of the compound of Reference Example 2 and the compound of Example 6(72) (dose: 100, 300 mg/kg) was forcedly orally administered, and blood pressure was measured under no anesthesia and no restraint. The blood pressure was measured by connecting the catheter inserted in the femoral artery and a blood pressure transducer (DX-360, Nihon Kohden Corporation) and passing through an amplifier for blood pressure measurement (Coupler.Amplifier PP-101H.AP-101H, Nihon Kohden Corporation). Blood pressure signals were captured into a data acquisition analysis system (HEM 3.5, NOTOCORD SYSTEM S.A.) through a polygraph system (PEG-1000, Nihon Kohden Corporation) to measure blood pressure (systolic pressure, diastolic pressure, mean blood pressure) and heart rate (measured from blood pressure pulse wave). […] The data were accumulated as measured values at respective time points and % variation values in which each value before administration was taken as 100.
In the case of `CCc1cccc(Cn2c3c(c4cccnc42)CCN(C(=O)CC24CCC(C(=O)O)(CC2)C4)C3)c1` [Example 6(72), 4-{2-[9-(3-ethylbenzyl)-5,6,8,9-tetrahydro-7H-pyrido[4′,3′:4,5]pyrrolo[2,3-b]pyridin-7-yl]-2-oxoethyl}bicyclo[2.2.1]heptane-1-carboxylic acid], the “influence on a circulatory organ (blood pressure, heart rate)” value is “no influence”.
Turning to `O=C(C[C@H]1CC[C@H](C(=O)O)CC1)N1CCc2c(n(Cc3ccc(F)cc3F)c3ncccc23)C1` [Reference Example 2, trans-4-{2-[9-(2,4-difluorobenzyl)-5,6,8,9-tetrahydro-7H-pyrido[4′,3′:4,5]pyrrolo[2,3-b]pyridin-7-yl}-2-oxoethyl}cyclohexanecarboxylic acid, reference compound], the “influence on a circulatory organ (blood pressure, heart rate)” value is “An influence of the compound of Reference Example 2 on a circulatory organ was observed”.

Values taken from patent US9862721B2, “Tetrahydrocarboline derivative” (ONO PHARMACEUTICAL CO., LTD., priority 2011, dated 2018).
